Measurements from patent US20120088667A1, “SAFENING AGENT” (priority 2009, published 2012).
Like-named read-outs stand apart in the source and are kept apart here.

Legend:
[1] = system: Maize cv Sundance (i.e. not Roundup Ready); settings: no glyphosate
Winter Wheat cv Limerick = system: Winter Wheat cv Limerick
Source text: (§1) The safening system and the fungicide were applied to the crops either simultaneously or sequentially, either as foliar applications or as a seed treatment.
(§2) Winter Barley: cv Saffron, sown 27 May 2008, at four/five seeds per 9 cm pot, sown in standard multi-purpose compost of pH 6.5. Date of spraying: 23 July; Dates of measurement/scoring: 30 July, 14 August, 22 August. Sprayed: mid-tillering phase (GS23). Winter Wheat: cv Limerick, sown 4 Jun. 2008, at four/five seeds per 9 cm pot, sown in standard multi-purpose compost of pH 6.5. Date of spraying: 23 July; Dates of measurement/scoring: 30 July, 14 August, 23 August. Sprayed: mid-tillering phase (GS23). Maize: cv Sundance, sown 25 May 2008, at 10 seeds per 25 cm pot, in John Innes No 1 compost. Date of measurement/assessment: 15 June. Seed treatment trial. Randomised block, mean of five replicates.
(§3) SAF: at least one from class (f) each at <3 g/l, plus at least one from class (c).

Winter Barley cv Saffron = settings: for Phytotoxicity (0-9) (0 = Dead) + 14 Days / Phytotoxicity (0-9) (0 = Dead) + 28 Days: score 0-9, 0 = Dead; for Vigour (0-9) (9 = Most Vigour) + 14 days: score 0-9, 9 = Most Vigour; for Vigour (0-9) + 28 Days: score 0-9, +28 days
Source text: as §1, §2, §3

Glycine max (Soybean) = experiment: Root nodulation and safening, soybean, compost of normal pH (Example 7.2); settings: compost of normal pH (6.5)
Source text: (§4) The safener/safening system and the fertiliser were applied to the crops either simultaneously or sequentially.
(§5) Co=100% Cobalt Sulphate (20 g per litre and per hectare). FF1=20 g per litre Cobalt Sulphate (as per Co above) plus “Miracle-Gro” at xl recommended rate (applied at 15 g per 2.5 sq metres). Miracle-Gro contains: 24% N, 4% P, 13% K, plus 0.02% B, 0.03% Cu, 0.19% Fe, 0.05% Mn, 0.001% Mo and 0.03% Zn. FF2=20 g per litre Cobalt Sulphate plus Miracle-Gro at ×2 recommended rate. SAF: at least one from class (f) each at <3 g/l, plus at least one from class (c).
Dates as per Example 7.1 above, but sown in compost of normal pH (6.5). Each treatment represents the mean values for 12 plants, within four replicates. Sowing density 110 kg/ha. Standard inoculant applied at sowing.

Winter wheat cv Alchemy = experiment: Safening of herbicides (Chlorotoluron, Isoproturon, Flumioxazin), winter wheat
Source text: Safening systems were applied to crops of oilseed rape and winter treated with various herbicides (Bifenox (with insecticide), Carbetamide, Propaquizafop, Chlorotoluron, Isoproturon, Flumioxazin). The safening system and the herbicide were applied to the crops either simultaneously or sequentially.
Oilseed rape: cv Excalibur, sown 26 Apr. 2008, at two seeds per 9 cm pot, sown in normal pH multi-purpose compost. Date of spraying: 6 June; Dates of measurement/scoring: 13 June, 20 June, 5 July. Winter wheat: cv Alchemy, sown 23 Apr. 2008, at seven seeds per 9 cm pot, sown in normal pH multi-purpose compost. Date of spraying: 24 May; Dates of measurement/scoring: 31 May, 7 June, 21 June. SAF: at least one from class (f) each at <3 g/l, plus at least one from class (c).
Statistical Layout: Randomised Complete Block trials, under glasshouse conditions, United Kingdom.

NAVY BEAN cv Mogex = experiment: Root nodulation and safening, navy bean, compost of normal pH (Example 7.4); settings: compost of normal pH (6.5)
Source text: as §4, §5
NAVY BEAN cv Mogex. Scored/Counted+28 Days after Spraying. Dates as per Example 7.3 Above, but sown in compost of normal pH (6.5). Each treatment represents the mean value from 12 plants, within four replicates. No inoculum applied.

Soybean = experiment: Root nodulation and safening, soybean, compost of low pH (Example 7.1); settings: Soybean, compost of low pH (5.0-5.5)
Source text: as §4, §5
Scored/Counted+28 Days After Spraying. Sown in Compost of low pH (5.0-5.5) on 1 May 2008. Spray Date (VC)=4 June, V1 Date=20 June. Scored/Measured on 17 July. […] Seed density approx 110 kg/ha. Soybean treated with standard inoculant at sowing.

[2] = Table 2.4, winter wheat, fungicide Prochloraz, score 0-9, 0 = Dead
[3] = Table 2.5, winter wheat, fungicide Flutriafol, score 0-9, 0 = Dead
[4] = score 0-9, 0 = dead, foliar, fungicides Fenpropidin and Flutriafol, Table 2.6
[5] = score 0-9, 9 = most vigour, foliar, fungicides Fenpropidin and Flutriafol, Table 2.6
[6] = Table 2.1, fungicide Prochloraz
[7] = Table 2.2, fungicide Flutriafol
[8] = Table 2.3, fungicides Fenpropidin and Flutriafol

Nc1ccccc1C(=O)O [AN, anthranilic acid]
Phytotoxicity (0-9) (0 = Dead) + 14 Days ([1]; scale 0-9, 0=dead, 9=least phytotoxicity, 14 days after spraying): 8.0 | Phytotoxicity (0-9) (0 = Dead) + 28 Days ([1]; scale 0-9, 0=dead, 9=least phytotoxicity, 28 days): 8.0 | Phytotoxicity (0-9) (0 = Dead) + 41 days ([1]; scale 0-9, 0=dead, 9=least phytotoxicity, 41 days): 8.0 | Vigour (0-9) + 14 Days ([1]; scale 0-9, 0=least vigour, 9=most vigour, 14 days): 8.0 | Vigour (0-9) + 28 Days ([1]; scale 0-9, 0=least vigour, 9=most vigour, 28 days): 8.0 | Vigour (0-9) + 41 Days ([1]; scale 0-9, 0=least vigour, 9=most vigour, 41 days): 8.0 | Phytotoxicity (0-9) (0 = Dead) + 14 Days (Winter Wheat cv Limerick; [2]): 7.5 | Phytotoxicity (0-9) (0 = Dead) + 28 Days (Winter Wheat cv Limerick; [2]): 8.0 | Vigour (0-9) (9 = Most Vigour) + 14 days (Winter Wheat cv Limerick; Table 2.4, winter wheat, fungicide Prochloraz, score 0-9, 9 = Most Vigour): 7.0 | Vigour (0-9) + 28 Days (Winter Wheat cv Limerick; Table 2.4, winter wheat, fungicide Prochloraz, score 0-9): 8.0 | Phytotoxicity (0-9) (0 = Dead) + 14 Days (Winter Wheat cv Limerick; [3]): 7.5 | Phytotoxicity (0-9) (0 = Dead) + 28 Days (Winter Wheat cv Limerick; [3]): 8.0 | Vigour (0-9) (9 = Most Vigour) + 14 days (Winter Wheat cv Limerick; Table 2.5, winter wheat, fungicide Flutriafol, score 0-9, 9 = Most Vigour): 7.0 | Vigour (0-9) + 28 Days (Winter Wheat cv Limerick; Table 2.5, winter wheat, fungicide Flutriafol, score 0-9): 8.0 | Phytotoxicity (0-9) (0 = Dead) + 14 Days (Winter Wheat cv Limerick; [4]): 7.5 | Phytotoxicity (0-9) (0 = Dead) + 28 Days (Winter Wheat cv Limerick; [4]): 8.0 | Vigour (0-9) (9 = Most Vigour) + 14 days (Winter Wheat cv Limerick; [5]): 7.0 | Vigour (0-9) + 28 Days (Winter Wheat cv Limerick; [5]): 8.0 | Phytotoxicity (0-9) (0 = Dead) + 14 Days (Winter Barley cv Saffron; [6]): 7.5 | Phytotoxicity (0-9) (0 = Dead) + 28 Days (Winter Barley cv Saffron; [6]): 8.0 | Vigour (0-9) (9 = Most Vigour) + 14 days (Winter Barley cv Saffron; [6]): 7.0 | Vigour (0-9) + 28 Days (Winter Barley cv Saffron; [6]): 8.0 | Phytotoxicity (0-9) (0 = Dead) + 14 Days (Winter Barley cv Saffron; [7]): 7.5 | Phytotoxicity (0-9) (0 = Dead) + 28 Days (Winter Barley cv Saffron; [7]): 8.0 | Vigour (0-9) (9 = Most Vigour) + 14 days (Winter Barley cv Saffron; [7]): 7.0 | Vigour (0-9) + 28 Days (Winter Barley cv Saffron; [7]): 8.0 | Phytotoxicity (0-9) (0 = Dead) + 14 Days (Winter Barley cv Saffron; [8]): 7.5 | Phytotoxicity (0-9) (0 = Dead) + 28 Days (Winter Barley cv Saffron; [8]): 8.0 | Vigour (0-9) (9 = Most Vigour) + 14 days (Winter Barley cv Saffron; [8]): 7.0 | Vigour (0-9) + 28 Days (Winter Barley cv Saffron; [8]): 8.0 | Nodules Per Plant (V1) (Glycine max (Soybean); V1, mean of 12 plants): 34.2 | Nodulation Score (0-9) (V1) (Glycine max (Soybean); V1, score 0-9): 5.9 | Phyto-Toxicity Score (0-9) (V1) (Glycine max (Soybean); V1, score 0-9): 8.0 | Vigour Score (0-9) (V1) (Glycine max (Soybean); V1, score 0-9): 6.7 | Nodules Per Plant (VC) (Glycine max (Soybean); VC): 33.3 | Nod Score (0-9) (VC) (Glycine max (Soybean); VC, score 0-9): 5.8 | Greenness (0-9) (9 = Deeper Green) + 14 Days (Winter wheat cv Alchemy; Table 3.3, no herbicide): 8.0 | Phytotoxicity (0-9) (0 = Dead) + 14 Days (Winter wheat cv Alchemy; Table 3.3, no herbicide): 9.0 | Vigour (0-9) (9 = Most Vigour) + 14 days (Winter wheat cv Alchemy; Table 3.3, no herbicide): 9.0 | Greenness (0-9) + 28 Days (Winter wheat cv Alchemy; Table 3.3, no herbicide): 8.0 | Phytotoxicity (0-9) + 28 Days (Winter wheat cv Alchemy; Table 3.3, no herbicide): 8.0 | Vigour (0-9) + 28 Days (Winter wheat cv Alchemy; Table 3.3, no herbicide): 8.0 | Greenness (0-9) (9 = Deeper Green) + 14 Days (Winter wheat cv Alchemy; Table 3.4, no herbicide): 8.0 | Phytotoxicity (0-9) (0 = Dead) + 14 Days (Winter wheat cv Alchemy; Table 3.4, no herbicide): 9.0 | Vigour (0-9) (9 = Most Vigour) + 14 days (Winter wheat cv Alchemy; Table 3.4, no herbicide): 9.0 | Greenness (0-9) + 28 Days (Winter wheat cv Alchemy; Table 3.4, no herbicide): 8.0 | Phytotoxicity (0-9) + 28 Days (Winter wheat cv Alchemy; Table 3.4, no herbicide): 8.0 | Vigour (0-9) + 28 Days (Winter wheat cv Alchemy; Table 3.4, no herbicide): 8.0 | Greenness (0-9) (9 = Deeper Green) + 14 Days (Winter wheat cv Alchemy; Table 3.5, no herbicide): 8.0 | Phytotoxicity (0-9) (0 = Dead) + 14 Days (Winter wheat cv Alchemy; Table 3.5, no herbicide): 9.0 | Vigour (0-9) (9 = Most Vigour) + 14 days (Winter wheat cv Alchemy; Table 3.5, no herbicide): 9.0 | Greenness (0-9) + 28 Days (Winter wheat cv Alchemy; Table 3.5, no herbicide): 8.0 | Phytotoxicity (0-9) + 28 Days (Winter wheat cv Alchemy; Table 3.5, no herbicide): 8.0 | Vigour (0-9) + 28 Days (Winter wheat cv Alchemy; Table 3.5, no herbicide): 8.0 | Nodules Per Plant (V1) (NAVY BEAN cv Mogex; V1, +28 days after spraying, no inoculum): 32.2 | Nodulation Score (0-9) (V1) (NAVY BEAN cv Mogex; V1, score 0-9): 5.0 | Phyto-Toxicity Score (0-9) (V1) (NAVY BEAN cv Mogex; V1, score 0-9): 7.0 | Vigour Score (0-9) (V1) (NAVY BEAN cv Mogex; V1, score 0-9): 7.2 | Nodules Per Plant (VC) (NAVY BEAN cv Mogex; VC): 33.2 | Nod Score (0-9) (VC) (NAVY BEAN cv Mogex; VC, score 0-9): 5.1 | Nodules Per Plant (V1) (Soybean; V1, +28 days after spraying, mean of 12 plants): 28.2 | Nodulation Score (0-9) (V1) (Soybean; V1, score 0-9): 5.3 | Phyto-Toxicity Score (0-9) (V1) (Soybean; V1, score 0-9): 8.0 | Vigour Score (0-9) (V1) (Soybean; V1, score 0-9): 6.2 | Nodules Per Plant (VC) (Soybean; VC, +28 days after spraying): 33.2 | Nod Score (0-9) (VC) (Soybean; VC, score 0-9): 5.8
